Source: patent publication US20170202838A1, “IMMUNOMODULATOR” (TAIHO PHARMACEUTICAL CO., LTD., priority 2015, published 2017)

Columns and labels:
Type in all cases: cell-based
mouse spleen cells = assay: Excitation of T cell growth, CFSE flow cytometry of CD4- and CD8-positive spleen cells (Example 4); conditions: 0.1 μM, 3 days culture of stimulated spleen cells
Method: The mouse spleen was extracted, grinded with glass slides with frosted areas, and then subjected to hemolysis, so as to obtain spleen cells. The spleen cells were suspended in 5 ml of a staining buffer (0.5% BSA, 2 mM EDTA, PBS(-)), and the cells were stained with 5 μM CFSE (5-carboxyfluorescein succinimidyl ester). Thereafter, the stained cells were washed with an ice-cooled complete medium (RPMI-1640). The CFSE-stained spleen cells were introduced into a complete medium (i.e., RPMI-1640 supplemented with 10% heat-inactivated FBS, 100 U/ml penicillin, 100 μg/ml streptomycin, and 55 μM 2-mercaptoethanol) to prepare a cell suspension (1×10^6 cells/ml), the anti-CD3 antibody and the anti-CD28 antibody were added at 1 μg/ml and 1 μg/ml, respectively, and Compound (I) adjusted to various concentrations or the EGFR tyrosine kinase inhibitor (i.e., AZD09291, Erlotinib, Co1686 (Rociletinib), Ibrutinib, Sunitinib, or Dasatinib) was added at 0.1 μM. […] These culture solutions were seeded in a 96-well plate at 200 μl/well and then cultured in an incubator at 37° C. in the presence of 5% CO2 for 3 days. The cells were recovered and stained with the anti-CD4 antibody and the anti-CD8 antibody. The amounts of CFSE in CD4- and CD8-positive cells were analyzed via flow cytometry.
Once CFSE is incorporated into a cell, the amount thereof is kept constant in the cell. Since the amount of CFSE per cell decreases by half upon cell division, according to flow cytometric analysis, the intensity of CFSE staining is attenuated and is shifted toward left (i.e., lower level) in the chart, as cell division proceeds. […] In the case of the samples to which other types of EGFR tyrosine kinase inhibitors had been added, in contrast, no such activity for enhancing the cell growth was observed.

[1] = system: human peripheral blood mononuclear cells; assay: Induction of cytokine production in human peripheral blood mononuclear cells, Bio-Plex Pro cytokine assay (Example 7); conditions: 2 days culture, no stimulant (FIG. 9)
Method: Human peripheral blood mononuclear cells were introduced into a human complete medium (i.e., RPMI-1640 supplemented with 10% heat-inactivated FBS, 100 U/ml penicillin, and 100 μg/ml streptomycin) to prepare a cell suspension (1×10^5 cells/ml). Compound (I), the EGFR tyrosine kinase inhibitor (i.e., AZD9291 or Erlotinib), or a cytokine-inducing positive control (i.e., Imiquimod) was added to the cell suspension. A control group to which the EGFR tyrosine kinase inhibitor and others were not added was also prepared (i.e., the non-treatment group). The culture solution was cultured in an incubator at 37° C. in the presence of 5% CO2 for 2 days. The culture supernatant was recovered, and various types of cytokines were inspected with the use of the Bio-Plex Pro human cytokine assay kit.

[2] = system: human peripheral blood mononuclear cells; assay: Induction of IL-2 production of PHA-M-stimulated human peripheral blood mononuclear cells (Example 2); conditions: PHA-M 5 μg/ml, 3 days, ELISA (FIG. 3)
Method: Human peripheral blood mononuclear cells were introduced into a human complete medium (i.e., RPMI-1640 supplemented with 10% heat-inactivated FBS, 100 U/ml penicillin, and 100 μg/ml streptomycin) to prepare a cell suspension (1×10^6 cells/ml). Phytohemagglutinin M (PHA-M) was added thereto to the final concentration of 5 μg/ml, and Compound (I) or an EGFR tyrosine kinase inhibitor (AZD9291) was further added thereto to each final concentration. This culture solution was seeded in a 96-well plate at 200 μl/well and then cultured in an incubator at 37° C. in the presence of 5% CO2 for 3 days. The culture supernatant was recovered, and the concentration of IL-2 therein was measured via ELISA using the anti-hIL-2 antibody.

Row | SMILES | cell death (mouse spleen cells) | cytokine concentrations relative to the non-treatment group [1] | concentration of IL-2 produced by human peripheral blood mononuclear cells in the culture supernatant [2]
1 | Cc1nc(Nc2ncc(C(=O)Nc3c(C)cccc3Cl)s2)cc(N2CCN(CCO)CC2)n1 [Dasatinib, reference compound] | cell death was induced | – | –
2 | C=CC(=O)Nc1cc(Nc2nccc(-c3cn(C)c4ccccc34)n2)c(OC)cc1N(C)CCN(C)C [AZD9291, reference compound] | – | such induction was not observed | substantially no activity for inducing IL-2 production
3 | C#Cc1cccc(Nc2ncnc3cc(OCCOC)c(OCCOC)cc23)c1 [Erlotinib] | – | such induction was not observed | –
